Results reported in article PMC4558462, “A new small molecule inhibitor of soluble guanylate cyclase” (Bioorganic & Medicinal Chemistry, 2015).
Entries after “also recorded” stand apart in the source; their conditions may differ. Like-named read-outs stand apart in the source and are kept apart here.

Columns and labels:
purified bovine lung sGC = molecular target: T1, purified bovine lung sGC (Bos taurus, UniProt P16068+P19687); experiment: Soluble guanylate cyclase activity assay (cGMP radioimmunoassay); type: biochemical
T1 construct: screened at 100 μM against purified bovine lung sGC; purchased Enzo lifesciences ALX-202-039-C005; host or cells: bovine lung
T1 sequence (P19687 1-691): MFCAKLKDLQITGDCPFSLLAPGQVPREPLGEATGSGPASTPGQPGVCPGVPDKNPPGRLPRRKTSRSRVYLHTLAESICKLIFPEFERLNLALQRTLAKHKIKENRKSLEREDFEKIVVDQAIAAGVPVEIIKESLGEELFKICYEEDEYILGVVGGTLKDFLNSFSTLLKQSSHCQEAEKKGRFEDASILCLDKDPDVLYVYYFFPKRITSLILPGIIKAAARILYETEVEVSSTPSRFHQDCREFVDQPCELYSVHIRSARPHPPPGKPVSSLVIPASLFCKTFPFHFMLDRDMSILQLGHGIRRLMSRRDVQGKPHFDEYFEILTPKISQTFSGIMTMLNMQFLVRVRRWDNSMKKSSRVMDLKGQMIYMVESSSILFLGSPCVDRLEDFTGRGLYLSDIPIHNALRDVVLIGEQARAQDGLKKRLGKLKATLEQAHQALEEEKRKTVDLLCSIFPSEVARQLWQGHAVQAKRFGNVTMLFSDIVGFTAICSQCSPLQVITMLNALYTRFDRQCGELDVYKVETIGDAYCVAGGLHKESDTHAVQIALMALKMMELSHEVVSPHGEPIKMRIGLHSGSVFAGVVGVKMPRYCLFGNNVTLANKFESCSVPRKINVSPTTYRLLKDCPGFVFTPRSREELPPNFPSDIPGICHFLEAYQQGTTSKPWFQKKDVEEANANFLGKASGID
T1 sequence (P16068 1-619): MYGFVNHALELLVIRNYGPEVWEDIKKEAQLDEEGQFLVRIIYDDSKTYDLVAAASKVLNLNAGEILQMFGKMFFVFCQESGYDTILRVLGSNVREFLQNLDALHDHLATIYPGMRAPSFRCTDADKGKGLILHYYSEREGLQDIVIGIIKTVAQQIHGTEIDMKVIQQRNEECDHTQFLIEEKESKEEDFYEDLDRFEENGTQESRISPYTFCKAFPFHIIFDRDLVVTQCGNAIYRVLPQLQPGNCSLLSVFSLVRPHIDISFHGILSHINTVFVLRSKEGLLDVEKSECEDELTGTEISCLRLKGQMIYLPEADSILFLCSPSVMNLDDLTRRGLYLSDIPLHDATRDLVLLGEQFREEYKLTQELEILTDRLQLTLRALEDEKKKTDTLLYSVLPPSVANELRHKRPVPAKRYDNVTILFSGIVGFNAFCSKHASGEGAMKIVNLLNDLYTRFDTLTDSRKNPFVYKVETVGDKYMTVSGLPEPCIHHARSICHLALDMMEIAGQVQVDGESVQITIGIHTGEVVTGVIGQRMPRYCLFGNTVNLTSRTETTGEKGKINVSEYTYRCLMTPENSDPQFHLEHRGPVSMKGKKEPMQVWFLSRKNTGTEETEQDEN
Protocol: Virtual screening was performed by similarity searches using MACCS fingerprints at 85% and 75% Tanimoto of commercial libraries and the selected compounds were screened at 100 μM against purified bovine lung sGC using diethylamine NONOate (30 nM) as the NO donor. Enzyme activity was determined by measuring cGMP production using a standard cGMP [^3H] radioimmunoassay.[21,22]
[…] Compounds were added at 100 μM prior to adding the NO donor DEA/NO (30 nM) or clamped NO concentrations. cGMP generation was allowed to proceed for two minutes, after which aliquots were withdrawn and inactivated by boiling in 50 mM Tris, 4 mM EDTA buffer. cGMP formation was measured by a standard radioimmunoassay.

sGCcat = molecular target: T2, sGCcat (Homo sapiens, UniProt Q02108+Q02153); experiment: SPR binding to catalytic domain of sGC
T2 construct: a smaller construct of the catalytic domain (sGCcat)
T2 sequence (Q02108 481-608 limits assumed): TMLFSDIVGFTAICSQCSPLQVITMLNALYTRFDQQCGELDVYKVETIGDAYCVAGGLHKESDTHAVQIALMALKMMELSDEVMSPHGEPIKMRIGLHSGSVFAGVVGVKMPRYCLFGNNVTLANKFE
T2 sequence (Q02153 421-554 limits assumed): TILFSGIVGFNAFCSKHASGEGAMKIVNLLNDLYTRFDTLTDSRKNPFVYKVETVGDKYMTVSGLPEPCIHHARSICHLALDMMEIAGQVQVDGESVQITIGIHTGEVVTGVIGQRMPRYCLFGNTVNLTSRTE
Protocol: We have previously described a surface plasmon resonance-based assay for the detection of binding of small molecules to full-length sGC and a smaller construct of the catalytic domain (sGCcat).[24] This assay was used to measure the binding of the compounds to sGCcat.[24] […] The position of the hydroxyl group can be changed whilst retaining binding strength and activity.
Surface plasmon resonance (SPR) experiments were performed with a Biacore T200 instrument at 25 °C. Data processing and analysis were performed using BIAevaluation software and Scrubber2. All sensorgrams were double referenced by subtracting the response in a reference flowcell and a blank sample. Materials and methods used were the same as previously published.[24]

[1] = system: NMDA-stimulated cGMP production in cerebellar slices; experiment: NMDA-stimulated cGMP production in rat cerebellar slices; type: cell-based; conditions: 100 μM
Protocol: The ability of compound 10 to inhibit sGC in tissues was explored using NMDA-stimulated cGMP production in cerebellar slices, which depends on NO formation. Rat cerebellar slices were pre-incubated with compound 10 then treated with NMDA.
Brain slices methods were conducted as described in detail.[37,38] Briefly, 0.4 mm thick sagittal cerebellar slices from 10-day-old animals were cut using a McIlwain tissue chopper. Experiments were carried out in the presence of the broad spectrum phosphodiesterase inhibitor IBMX (1 mM; 10 min preincubation) and, when appropriate, antagonists were added 10 min prior to IBMX. Following treatment, brain slices were inactivated in boiling Tris–HCl buffer (50 mM, pH 7.5) containing EDTA (4 mM) and homogenised by sonication after which aliquots were removed for measurement of protein (bicinchoninic acid method) and cGMP (radioimmunoassay).

What does the source list for `O=[N+]([O-])c1ccc2nc(Nc3ccc(O)cc3)c(Nc3ccc(O)cc3)nc2c1` [Compound 10, 4,4′-((6-Nitroquinoxaline-2,3-diyl)bis(azanediyl))diphenol]?
Hill slope (purified bovine lung sGC; GC activator cinaciguat 20 nM): 4; IC50 (purified bovine lung sGC; GC activator cinaciguat 20 nM, no NO, read-out: IC50 (μM) ± SE): 25 ± 4 µM; Hill slope (purified bovine lung sGC; GC activator cinaciguat 1 μM): 4; IC50 (purified bovine lung sGC; GC activator cinaciguat 1 μM, no NO, read-out: IC50 (μM) ± SE): 37 ± 40 µM; IC50 (purified bovine lung sGC; NO 0.3 nM, GTP 50 μM, read-out: IC50, NO-stimulated cGMP production by isolated sGC): 21 ± 3 µM; IC50 (purified bovine lung sGC; NO 0.3 nM, GTP 200 μM, read-out: IC50, NO-stimulated cGMP production by isolated sGC): 33 ± 4 µM; IC50 (purified bovine lung sGC; NO 0.3 nM, GTP 1000 μM, read-out: IC50, NO-stimulated cGMP production by isolated sGC): 33 ± 9 µM; IC50 (purified bovine lung sGC; NO 10 nM, GTP 50 μM, read-out: IC50, NO-stimulated cGMP production by isolated sGC): 19 ± 2 µM; IC50 (purified bovine lung sGC; NO 10 nM, GTP 200 μM, read-out: IC50, NO-stimulated cGMP production by isolated sGC): 19 ± 1 µM; IC50 (purified bovine lung sGC; NO 10 nM, GTP 1000 μM, read-out: IC50, NO-stimulated cGMP production by isolated sGC): 34 ± 2 µM; inhibition of cGMP production after enzyme activation with cinaciguat (in words) (purified bovine lung sGC; cinaciguat-activated, no NO): capable of inhibiting cGMP production; inhibition at 100 µM (purified bovine lung sGC; read-out: % inhibition of sGC activity at 100 μM compound): 99%; inhibition at 100 µM (purified bovine lung sGC; read-out: sGC activity% inhibition at 100 μM): 56.2 ± 22.4%; Kd (sGCcat): 11.4 ± 1.8 µM; sGCcat (SPR) binding norm. resp. (RU) (sGCcat; Biacore T200, 25 °C): 14.4 ± 1.7 RU; binding to sGCcat (in words) (sGCcat; discussion of Table 1): higher binding; Kd (sGCcat; listed as D12): 11 µM; inhibition of NMDA-induced cGMP generation [1]: almost completely; also recorded: inhibits cGMP production
